Values joined by “and” are separate entries in the source; they are usually repeats but may differ in a detail not shown here. Equal values may be shown once.
How the values were obtained:
EMT6 tumor cells = assay: EMT-6 tumor model (tumor volume and lung metastasis); type: in vivo, female Balb/c mice
Protocol: Test animals were female Balb/c mice aged 5-8 weeks at inoculation.
The EMT6 tumor cells were maintained in vitro with DMEM medium supplemented with 10% fetal bovine serum at 37° C. in an atmosphere of 5% CO2 in air. The cells in exponential growth phase were harvested and quantitated by cell counter before tumor inoculation.
Each mouse was inoculated subcutaneously in the right flank region with EMT6 tumor cells (5×10^5) in 0.1 ml of PBS for tumor development.
Staggered inoculation was performed. G1, 2, 3, 6, 7 were inoculated one day before G4, 5, 8, 9, 10.
The randomization started when the mean tumor size reached approximately 80 (60-110) mm^3. 100 mice were enrolled in the study. All animals were randomly allocated to 10 study groups. Randomization was performed based on “Matched distribution” method (StudyDirector™ software, version 3.1.399.19).
Staggered randomization was performed. G1, 2, 3, 6, 7 were randomized one day before G4, 5, 8, 9, 10.
The date of tumor randomization was denoted as day 0.
After tumor cells inoculation, the animals were checked daily for morbidity and mortality. During routine monitoring, the animals were checked for any effects of tumor growth and treatments on behavior such as mobility, food and water consumption, body weight gain/loss (body weights were measured twice per week after randomization), eye/hair matting and any other abnormalities. Mortality and observed clinical signs were recorded for individual animals in detail.
Tumor volumes were measured twice per week in two dimensions using a caliper, and the volume was expressed in mm^3 using the formula: “V=(L×W×W)/2, where V is tumor volume, L is tumor length (the longest tumor dimension) and W is tumor width (the longest tumor dimension perpendicular to L). (Tumor weight was measured at the end of study). Dosing as well as tumor and body weight measurements were conducted in a Laminar Flow Cabinet.
The study was terminated at 4 weeks post randomization. Individual animals were euthanized when TV>3000 mm^3.
For comparison between two groups, a Student's t-test was performed. For comparison among three or more groups, an one-way ANOVA was performed followed by multiple comparison procedures. All data were analyzed using SPSS 18.0 and/or GraphPad Prism 5.0. P<0.05 is considered statistically significant.
Animals were treated with vehicle, cpd 76, radiotherapy, or anti-PD-L1, or a combination of treatments. Compound 76 was dosed 50 mg/kg and formulated 5 mg/ml in PBS. Radiotherapy used the X-RAD 225Cx SmART Small Animal Radiation Therapy System (Crownbio). Ten animals were in each group and dosing was performed as in Table 4.

[1] = Animal weight in 4T1 tumor model study; type: in vivo, Mus musculus, BALB/c; conditions: throughout the study; Groups 3 and 4 until Day 21, Groups 1 and 2 until Day 25
Protocol: All treatment groups were compared to the vehicle control given subcutaneously once a day on Days 7, 8, 9, 14, 15 and 16 (Group 1).
At necropsies, animals were weighed, and a final in vivo tumor volume measurement was performed.

**Q.** For `COc1cccc2c(N3CCC(CCP(=O)(O)O)CC3)ncnc12` [Compound 76], which “effect on tumor growth” value (EMT6 tumor cells; Compound 76 50 mg/kg QD 1-7 combined with IR and aPD-L1 (triple combo)) is on record?
**A.** synergistic effect

**Q.** And the “lung metastasis (animals with metastasis / animals)” value (EMT6 tumor cells; Compound 76 QD 1-7 d combined with aPD-L1 (Groups 9 and 10), study termination day 29)?
**A.** 0/20

**Q.** And the “effect on tumor volume / tumor growth” value (EMT6 tumor cells; single agent, Compound 76 50 mg/kg QD 1-7 only or 3 d on/4 d off for 4 weeks, aPD-L1 2.5 mg/kg)?
**A.** no effect on tumor volume

**Q.** And the “lung metastasis (animals with metastasis / animals in group)” value (EMT6 tumor cells; single agent, study termination day 29)?
**A.** 7/10 and 8/10

**Q.** With `COc1cccc2c1C(=O)c1c(O)c3c(c(O)c1C2=O)C[C@@](O)(C(=O)CO)C[C@@H]3O[C@H]1C[C@H](N)[C@H](O)[C@H](C)O1` [doxorubicin, Doxorubicin] as the compound, how does the mean animal weights [1] read?
**A.** continuously decreased
